Assay results published in US9889115B2, “Fitness assay and associated methods” (priority 1998, dated 2018).

Columns and labels:
Format in all cases: cell-based
wild-type HIV-1 (WT) = test: IC50 against wild-type HIV-1 (Table 9a); settings: (WT)
[1] = test system: multidrug-resistant HIV-1 clinical isolate, patient 20; test: microbe, parasite or virus in culture; settings: Patient Isolate 20
Description: (§1) The mutant multidrug-resistant HIV-1 strains corresponding to each patient, numbered 9-35, were genetically analyzed in terms of the nucleic acid sequences of the protease (PR) and a portion of the reverse transcriptase (RT) genes from which mutations in these enzymes were determined. The mutations in the protease and reverse transcriptase of the multidrug-resistant viruses isolated from each patient are shown below in Table 9b.

[2] = test system: multidrug-resistant HIV-1 clinical isolate, patient 19; test: microbe, parasite or virus in culture; settings: Patient Isolate 19
Description: as §1

[3] = test system: multidrug-resistant HIV-1 clinical isolate, patient 18; test: microbe, parasite or virus in culture; settings: Patient Isolate 18
Description: as §1

[4] = test system: multidrug-resistant HIV-1 clinical isolate, patient 13; test: microbe, parasite or virus in culture; settings: Patient Isolate 13
Description: as §1

[5] = test system: multidrug-resistant HIV-1 clinical isolate, patient 28; test: microbe, parasite or virus in culture; settings: Patient Isolate 28
Description: as §1

[6] = test system: multidrug-resistant HIV-1 clinical isolate, patient 33; test: microbe, parasite or virus in culture; settings: Patient Isolate 33
Description: as §1

[7] = test system: multidrug-resistant HIV-1 clinical isolate, patient 29; test: microbe, parasite or virus in culture; settings: Patient Isolate 29
Description: as §1

[8] = test system: multidrug-resistant HIV-1 clinical isolate, patient 9; test: microbe, parasite or virus in culture; settings: Patient Isolate 9
Description: as §1

[9] = test system: multidrug-resistant HIV-1 clinical isolate, patient 23; test: microbe, parasite or virus in culture; settings: Patient Isolate 23
Description: as §1

[10] = test system: multidrug-resistant HIV-1 clinical isolate, patient 14; test: microbe, parasite or virus in culture; settings: Patient Isolate 14
Description: as §1

[11] = test system: multidrug-resistant HIV-1 clinical isolate, patient 16; test: microbe, parasite or virus in culture; settings: Patient Isolate 16
Description: as §1

[12] = test system: multidrug-resistant HIV-1 clinical isolate, patient 12; test: microbe, parasite or virus in culture; settings: Patient Isolate 12
Description: as §1

[13] = test system: multidrug-resistant HIV-1 clinical isolate, patient 32; test: microbe, parasite or virus in culture; settings: Patient Isolate 32
Description: as §1

[14] = test system: multidrug-resistant HIV-1 clinical isolate, patient 30; test: microbe, parasite or virus in culture; settings: Patient Isolate 30
Description: as §1

[15] = test system: multidrug-resistant HIV-1 clinical isolate, patient 17; test: microbe, parasite or virus in culture; settings: Patient Isolate 17
Description: as §1

[16] = test system: multidrug-resistant HIV-1 clinical isolate, patient 35; test: microbe, parasite or virus in culture; settings: Patient Isolate 35
Description: as §1

[17] = test system: multidrug-resistant HIV-1 clinical isolate, patient 15; test: microbe, parasite or virus in culture; settings: Patient Isolate 15
Description: as §1

[18] = test system: multidrug-resistant HIV-1 clinical isolate, patient 11; test: microbe, parasite or virus in culture; settings: Patient Isolate 11
Description: as §1

[19] = test system: multidrug-resistant HIV-1 clinical isolate, patient 27; test: microbe, parasite or virus in culture; settings: Patient Isolate 27
Description: as §1

[20] = test system: multidrug-resistant HIV-1 clinical isolate, patient 21; test: microbe, parasite or virus in culture; settings: Patient Isolate 21
Description: as §1

[21] = test system: multidrug-resistant HIV-1 clinical isolate, patient 10; test: microbe, parasite or virus in culture; settings: Patient Isolate 10
Description: as §1

[22] = test system: multidrug-resistant HIV-1 clinical isolate, patient 22; test: IC50 against multidrug-resistant clinical isolates (Table 9a); settings: Patient Isolate 22; read-out: IC50
Description: as §1

[23] = test system: multidrug-resistant HIV-1 clinical isolate, patient 4; test: PHA-PBMC assay, p24 Gag protein production; settings: Human immunodeficiency virus 1; Patient/Isolate code 4; PHA-PBMC, p24
Description: (§2) The patient profiles are shown below in Table 2.
(§3) To determine protease inhibitory activity against multidrug resistant HIV, the IC50's were measured against a panel of clinically isolated mutant HIV isolates.
(§4) All drug sensitivities were performed in triplicate. In order to determine whether the HIV isolates were syncitium inducing (SI) or non-syncitium inducing (NSI), an aliquot of viral stock supernatant, containing 100 TCID50, was cultured with 1×10^5 MT-2 cells in a 12-well plate. Cultures were maintained for four weeks and were examined for syncytium formation twice a week.

[24] = test system: multidrug-resistant HIV-1 clinical isolate, patient 5; test: PHA-PBMC assay, p24 Gag protein production; settings: Human immunodeficiency virus 1; Patient/Isolate code 5; PHA-PBMC, p24
Description: as §2, §3, §4

[25] = test system: multidrug-resistant HIV-1 clinical isolate, patient 3; test: PHA-PBMC assay, p24 Gag protein production; settings: Human immunodeficiency virus 1; Patient/Isolate code 3; PHA-PBMC, p24
Description: as §2, §3, §4

[26] = test system: multidrug-resistant HIV-1 clinical isolate, patient 6; test: PHA-PBMC assay, p24 Gag protein production; settings: Human immunodeficiency virus 1; Patient/Isolate code 6; PHA-PBMC, p24
Description: as §2, §3, §4

[27] = test system: multidrug-resistant HIV-1 clinical isolate, patient 8; test: PHA-PBMC assay, p24 Gag protein production; settings: Human immunodeficiency virus 1; Patient/Isolate code 8; PHA-PBMC, p24
Description: as §2, §3, §4

[28] = test system: multidrug-resistant HIV-1 clinical isolate, patient 1; test: PHA-PBMC assay, p24 Gag protein production; settings: Human immunodeficiency virus 1; Patient/Isolate code 1; PHA-PBMC, p24
Description: as §2, §3, §4

[29] = test system: multidrug-resistant HIV-1 clinical isolate, patient 7; test: PHA-PBMC assay, p24 Gag protein production; settings: Human immunodeficiency virus 1; Patient/Isolate code 7; PHA-PBMC, p24
Description: as §2, §3, §4

HIV-1ERS104pre = test: PHA-PBMC assay, p24 Gag protein production; settings: Human immunodeficiency virus 1; HIV-1ERS104pre, SI; PHA-PBMC, p24
Description: as §2, §3, §4

[30] = test system: multidrug-resistant HIV-1 clinical isolate, patient 2; test: PHA-PBMC assay, p24 Gag protein production; settings: Human immunodeficiency virus 1; Patient/Isolate code 2; PHA-PBMC, p24
Description: as §2, §3, §4

HIV = test: influence of human protein binding on antiviral activity
Description: These failures have been ascribed, but not definitively proven, to be due to excessive binding to human plasma proteins, particularly serum albumin and AAG.

HIV-1LAI = test: PHA-PBMC assay, p24 Gag protein production; settings: Human immunodeficiency virus 1; HIV-1LAI, SI; PHA-PBMC, p24 (Table 3)
HIV-1BAL = test: PHA-PBMC assay, p24 Gag protein production; settings: Human immunodeficiency virus 1; HIV-1BAL, NSI; PHA-PBMC, p24 (Table 3)

## Cc1cn([C@H]2C[C@H](N=[N+]=[N-])[C@@H](CO)O2)c(=O)[nH]c1=O [AZT, 3′-azido-2′,3′-dideoxythymidine]
wild-type HIV-1 (WT)
  IC50: 22 nM
[1]
  IC50: 1250 nM
[2]
  IC50: > 1250 nM
[3]
  IC50: 550 nM
[4]
  IC50: 170 nM
[5]
  IC50: > 1250 nM
[6]
  IC50: 510 nM
[7]
  IC50: > 1250 nM
[8]
  IC50: 10 nM
[9]
  IC50: 190 nM
[10]
  IC50: 640 nM
[11]
  IC50: 970 nM
[12]
  IC50: 70 nM
[13]
  IC50: 320 nM
[14]
  IC50: 160 nM
[15]
  IC50: > 1250 nM
[16]
  IC50: 880 nM
[17]
  IC50: 200 nM
[18]
  IC50: 110 nM
[19]
  IC50: 30 nM
[20]
  IC50: > 1250 nM
[21]
  IC50: 20 nM
[22]
  IC50: 1020 nM

## CC(C)CN(C[C@@H](O)[C@H](Cc1ccccc1)NC(=O)O[C@H]1CCOC1)S(=O)(=O)c1ccc(N)cc1 [AMV, Amprenavir]
[23]
  IC50: 400 nM
[24]
  IC50: 280 nM
[25]
  IC50: 330 nM
[26]
  IC50: 110 nM
[27]
  IC50: 220 nM
[28]
  IC50: 290 nM
[29]
  IC50: 420 nM
HIV-1ERS104pre
  IC50: 21 nM
[30]
  IC50: 240 nM
HIV; (−), no added protein
  fold of IC50 relative to (−): 1 ×
HIV; Alb: human serum albumin (HAS, 300 μM)
  fold of IC50 relative to (−): 1 ×
HIV; Human immunodeficiency virus 1, (−), no added protein
  IC50: 29 nM
HIV; Human immunodeficiency virus 1, Alb: human serum albumin (HAS, 300 μM)
  IC50: 21 nM
HIV; Human immunodeficiency virus 1, human alpha acid glycoprotein (AAG, 10 μM)
  IC50: 180 nM
HIV; human alpha acid glycoprotein (AAG, 10 μM)
  fold of IC50 relative to (−): 6 ×
HIV-1LAI
  IC50: 19 nM
HIV-1BAL
  IC50: 14 nM

## Nc1ccn([C@@H]2CS[C@H](CO)O2)c(=O)n1 [Compound 3TC]
wild-type HIV-1 (WT)
  IC50: 264 nM

## Nc1ccn([C@H]2CC[C@@H](CO)O2)c(=O)n1 [DDC, 2′3′-dideoxycytidine]
wild-type HIV-1 (WT)
  IC50: 243 nM
